# Assay results published in paper PMC5902575, “Characterization of AiiK, an AHL lactonase, from Kurthia huakui LAM0618^T and its application in quorum quenching on Pseudomonas aeruginosa PAO1” (Scientific Reports, 2018).
# Target: T1, AiiK (Kurthia huakuii, UniProt Z9B3F0ZFT1)
# T1 construct: primer-encoded N-terminus MCQNKKLY
# Assay: HPLC of remaining AHL at […] nm, Michaelis-Menten fit
# Format: biochemical
# Details: 10 mM PBS pH 7.4, 25 °C, 10 min, 4 μg/mL enzyme, 25–150 μM substrate; unit given as mM^−1 in the source; unit of the source corrected
# T1 sequence (Z9B3F0ZFT1 1-278 limits assumed): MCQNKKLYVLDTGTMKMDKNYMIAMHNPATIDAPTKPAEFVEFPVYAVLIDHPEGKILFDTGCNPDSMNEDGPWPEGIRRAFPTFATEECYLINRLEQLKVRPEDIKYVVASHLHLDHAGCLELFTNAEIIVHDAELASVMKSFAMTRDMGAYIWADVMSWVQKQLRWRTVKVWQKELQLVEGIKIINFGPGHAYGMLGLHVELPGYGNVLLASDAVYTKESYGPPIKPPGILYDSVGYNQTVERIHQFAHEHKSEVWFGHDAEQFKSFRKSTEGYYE
row,Mean ± SD / Km(mM^-1) [mM],Compound
1,0.315 ± 0.065,CCCCCCCCCC(=O)N[C@H]1CCOC1=O [C10-HSL]
2,0.204 ± 0.031,CCCCCC(=O)N[C@H]1CCOC1=O [C6-HSL]
3,0.036 ± 0.004,CCCCCCCCCCCCCC(=O)N[C@H]1CCOC1=O [C14-HSL]
4,0.066 ± 0.02,CCCC(=O)CC(=O)N[C@H]1CCOC1=O [3-Oxo-C6-HSL]
